Source: patent publication US20070219213A1, “Use of Adrenergic N-Phenylpiperazine Antagonists, Pahrmaceutical Compositions Containning Them, and Methods of Preparing Them” (priority 2004, published 2007)

Assays:
[1] = system: alpha 1A adrenoceptor (human prostatic membranes); details: similar models; literature (Motiyama et al.); cited from earlier work
alpha 1B subtype = target: T1, alpha 1B subtype (Rattus norvegicus, UniProt P15823); test: [3H]prazosin binding assay in rat liver; details: rat liver, α1B; read-out: IC50
T1 construct: from tissue; host or cells: rat liver homogenate/membranes
T1 sequence (P15823 1-515): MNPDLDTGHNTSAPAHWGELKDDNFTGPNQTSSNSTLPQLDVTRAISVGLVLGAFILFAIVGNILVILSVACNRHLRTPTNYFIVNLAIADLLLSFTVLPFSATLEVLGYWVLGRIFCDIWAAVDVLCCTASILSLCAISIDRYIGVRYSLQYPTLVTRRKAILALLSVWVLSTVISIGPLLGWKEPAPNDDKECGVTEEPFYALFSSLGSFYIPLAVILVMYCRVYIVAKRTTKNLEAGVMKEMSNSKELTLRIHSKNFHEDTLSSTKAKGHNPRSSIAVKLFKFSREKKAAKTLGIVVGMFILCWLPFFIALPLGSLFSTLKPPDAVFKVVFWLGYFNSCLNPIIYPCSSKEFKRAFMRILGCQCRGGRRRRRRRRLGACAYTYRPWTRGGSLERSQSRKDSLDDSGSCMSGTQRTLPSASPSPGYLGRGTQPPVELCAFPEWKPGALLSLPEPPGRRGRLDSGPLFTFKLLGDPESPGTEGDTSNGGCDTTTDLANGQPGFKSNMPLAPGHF

[2] = system: phenylephrine vasopressor effects; test: Inhibition of phenylephrine vasopressor effects in anesthetized rabbits; format: in vivo; details: rabbit, n=5
Procedure: Animal and Homodynamic Measurements:
The experiments were performed with male rabbits weighing 3 kg, from the CECAL (Centro de Criação de Animais de Laboratório) at Fundação Oswaldo Cruz. The animals were anesthetized with sodium pentobarbital (40 mg/kg) in the ear marginal vein, and anesthesia maintenance was obtained with supplemental intravenous (i.v.) doses of 5 mg/kg as necessary. The […] were tracheomized, inserted with a polyethylene canule, and immobilized with pancuronium bromide (1 mg/kg, i.v.), with supplemental doses of 0.2 mg/kg for each hour of experiment and artificially ventilated with a mechanical fan (Rodent ventilator 7025, Ugo Basile) with a volume of 10 ml/kg and frequency from 40 to 50 incursions/min. The right femoral vein was catheterized for drug administration.
The arterial pressure was monitored through abdominal aorta catheter via the right femoral artery and connected to a quartz transductor Hewlett Packard (1290 A), which was connected to an arterial pressure processor and recorder Hewlett Packard (system 7754 with amplifier 8805 B).
The systolic (SAP) and diastolic (DAP) arterial pressures were obtained directly from the records and the average arterial pressure (AAP) was calculated by DAP's Sum with a third of the differential pressure [[…]]. The cardiac frequency was determined by counting the pressure waves, visualized with the speed increase of the recorder paper.
The cardiac debit (DC) was monitored using an electromagnetic probe, connected to a Skalar flowmeter model MDL 1401. After left thoraxatomy, between the second and third ribs, was made an incision in the pericardium and the heart was exposed to enable the visualization and dissection of the ascending aorta for installation of the electromagnetic probe. The systemic vascular resistance (SVR) was calculated as a quotient of the average arterial pressure by the cardiac debit, multiplied by a conversion factor 80 (SVR=AAP/DC×80) and expressed in dyn/seg/cm-5.
At the conclusion of the anesthetic-surgical procedures, a 15-minute period was allowed for stabilization of the homodynamic parameters. Before any pharmacological manipulation the average arterial pressure, cardiac frequency and cardiac debit measurements were obtained. These values were considered basal homodynamic values.
Dose-Response Curve of the Phenylephrine Vasopressor Effect:
After surgical procedures and stabilization of the homodynamic parameters, a dose-response curve of the phenylephrine pressure effects was performed ([…], i.v.), that were named control curves. […]
The results were expressed as average±standard deviation (E.P.M.) The administration effects of LASSBio 772 with regard to the basal values were analyzed through variance analysis (ANOVA) for repeated measurements. […]

α1A = target: T2, α1A (Oryctolagus cuniculus, UniProt O02824); test: Binding study in rabbit liver; details: rabbit liver, α1A; read-out: IC50
T2 construct: from tissue
T2 sequence (O02824 1-466): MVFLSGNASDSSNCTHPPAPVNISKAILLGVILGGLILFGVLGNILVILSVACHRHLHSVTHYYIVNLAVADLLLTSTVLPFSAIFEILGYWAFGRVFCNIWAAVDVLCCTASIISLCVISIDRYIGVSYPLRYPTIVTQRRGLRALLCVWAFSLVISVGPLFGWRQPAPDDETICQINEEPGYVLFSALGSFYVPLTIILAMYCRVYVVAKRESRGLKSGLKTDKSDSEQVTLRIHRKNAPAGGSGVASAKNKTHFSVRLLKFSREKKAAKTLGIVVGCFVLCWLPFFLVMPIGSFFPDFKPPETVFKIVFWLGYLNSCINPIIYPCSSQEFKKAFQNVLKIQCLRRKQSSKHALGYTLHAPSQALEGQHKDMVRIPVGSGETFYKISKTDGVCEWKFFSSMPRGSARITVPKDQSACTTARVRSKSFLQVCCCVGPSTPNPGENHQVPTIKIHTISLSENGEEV

[3] = target: T3, alpha 1D adrenoceptor (rat aorta) (Rattus norvegicus, UniProt P23944); test: Vasoconstriction assay in rat aorta induced by norepinephrine; format: cell-based; details: pKB, rat aorta, α1D
T3 construct: from tissue; host or cells: rat aorta segments with endothelium
T3 sequence (P23944 1-561): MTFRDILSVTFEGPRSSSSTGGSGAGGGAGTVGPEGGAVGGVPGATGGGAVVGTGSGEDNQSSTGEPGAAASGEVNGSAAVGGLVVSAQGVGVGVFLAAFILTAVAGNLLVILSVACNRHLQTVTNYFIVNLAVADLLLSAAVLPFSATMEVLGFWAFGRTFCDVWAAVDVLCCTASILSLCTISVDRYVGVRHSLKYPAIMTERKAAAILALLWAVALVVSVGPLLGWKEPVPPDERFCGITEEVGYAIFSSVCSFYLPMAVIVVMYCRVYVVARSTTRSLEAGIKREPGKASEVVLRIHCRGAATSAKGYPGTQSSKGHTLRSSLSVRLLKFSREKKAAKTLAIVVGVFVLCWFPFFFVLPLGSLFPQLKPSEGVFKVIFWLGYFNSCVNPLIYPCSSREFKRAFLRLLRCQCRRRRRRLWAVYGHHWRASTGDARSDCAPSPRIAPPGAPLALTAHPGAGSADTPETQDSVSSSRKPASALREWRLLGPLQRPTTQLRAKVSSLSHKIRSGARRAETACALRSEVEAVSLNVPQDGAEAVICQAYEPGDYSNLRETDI
Procedure: Vasoconstriction Assay in Mouse Aorta Induced By Norepinephrine
Aorta segments with endothelium (3 mm), withdrawn from young male rats (250-300 g), were placed in containers containing physiologic solution (NaCl 122 mM, KCl 5 mM, NaHCO3 15 mM, glucose 11.5 mM, MgCl2 1.2 mM, CaCl2 1.25 mM and KH2PO4 1.2 mM), kept at 37° C. under aeration with a mixture of 95% of O2 and 5% of CO2, and submitted to a pre-charge of 5 mN for 60 minutes. During this period, eventual tension adjustments were performed until the stabilization in 0.5 g, always with renewal with physiologic solution. Then, vasoconstriction was induced by 60 mM KCl solution, in each ring, to verify the viability of the organ on the day of experiment. The preparation was submitted to the contraction with norepinephrine (5×10^−5 M) and, then the rings were washed to reach the basal line (0% of vasoconstriction). The procedure was repeated until the obtainment of a constant curve. Later, a curve, using increasing concentrations of norepinephrine (3×10^−8-5×10^−5 M), was performed for each ring, as a positive control. The segments were washed to reach the basal line (0% of vasoconstriction) and incubated with the test compounds, individually, for 30 minutes. A second norepinephrine curve was performed and obtained data compared to the first control curve. […] The aorta rings were used once for each compound.
Determination of the LASSBio 772 Antagonist Potency (pKB) on the Vasoconstriction of Rabbit or Rat Thoracic Aorta.

alpha 1A subtype = target: T4, alpha 1A subtype (Rattus norvegicus, UniProt P43140); design: from tissue; host or cells: rat salivary gland homogenate/membranes; details: 0.06 nM [3H]prazosin (Michel et al.), read-out: IC50 of reference; cited from earlier work
T4 sequence (P43140 1-466): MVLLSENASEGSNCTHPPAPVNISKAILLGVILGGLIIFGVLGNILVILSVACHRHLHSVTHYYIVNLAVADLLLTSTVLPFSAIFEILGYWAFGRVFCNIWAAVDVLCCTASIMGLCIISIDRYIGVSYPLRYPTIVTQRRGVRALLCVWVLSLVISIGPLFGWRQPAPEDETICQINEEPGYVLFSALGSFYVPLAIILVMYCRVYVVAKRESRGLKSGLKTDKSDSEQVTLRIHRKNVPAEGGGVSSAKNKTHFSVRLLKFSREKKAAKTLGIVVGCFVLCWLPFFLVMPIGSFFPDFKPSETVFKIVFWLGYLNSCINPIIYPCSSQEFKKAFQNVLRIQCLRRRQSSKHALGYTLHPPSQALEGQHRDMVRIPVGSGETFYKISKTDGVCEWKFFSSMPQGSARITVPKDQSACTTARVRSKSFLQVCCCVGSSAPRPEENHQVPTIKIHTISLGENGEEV

[4] = system: alpha 1A and alpha 1B adrenoceptors (rabbit aorta, α1A > α1B); details: literature (Yamagishi et al.); cited from earlier work

For `CCOc1ccccc1OCCN[C@H](C)Cc1ccc(OC)c(S(N)(=O)=O)c1` [tamsulosin], the Kb [1] is listed as 0.2 nM and the pKB [1] is listed as 9.68.

In the case of `COc1ccccc1N1CCN(CCc2ccccc2)CC1` [LASSBio 772B, 4-Phenethyl-1-(2-methoxy-phenyl)-piperazine], the IC50 (alpha 1B subtype) is reported as 130 nM, the “AAP increase induced by phenylephrine in the presence of compound” value ([2]; phenylephrine 100 μg/kg i.v.) is reported as 9±4% and the “SVR increase induced by phenylephrine in the presence of compound” value ([2]; phenylephrine 100 μg/kg i.v.) is reported as 15±5%. The “decrease of DC induced by phenylephrine in the presence of compound” value ([2]; phenylephrine i.v.) was 7±2%, the IC50 (α1A) was 23.9 nM and the Kb [3] was 0.02 nM.

For `C[C@H](Cc1cc2c(c(C(N)=O)c1)N(CCCO)CC2)NCCOc1ccccc1OCC(F)(F)F` [KMD-3213], the Kb [1] is given as 0.35 nM and the pKB [1] is given as 9.45.

In the case of `COc1cccc(OC)c1OCCNCC1COc2ccccc2O1` (stereo not drawn) [WB 4101], the IC50 (alpha 1A subtype) is listed as 0.6 nM.

For `COc1cc2nc(N3CCN(C(=O)c4ccco4)CC3)nc(N)c2cc1OC` [Prazosin, prazosin], the Kb [1] is given as 1.45 nM, the pKB [1] is given as 8.84 and the Kb [4] is given as 1.02 nM. The pKB [4] was 9.05.
